The values below come from US7465544B2, “Synthetic cofactor analogs of S-adenosylmethionine as ligatable probes of biological methylation and methods for their use” (Wisconsin Alumni Research Foundation, priority 2006, dated 2008).

Counter-ions that a name gives are not always drawn. Where only a bound is given, the exact number is not on record here.

Targets include M.EcoRI (Escherichia coli, UniProt P00472); M.HhaI (Haemophilus parahaemolyticus, UniProt P05102); M.SssI (Spiroplasma monobiae, UniProt P15840).
Assay type in all cases: biochemical
For assay [1], the target named is T1, M.TaqI (Thermus aquaticus, UniProt P14385). The assay is described as follows: Restriction/protection assay: M.TaqI-mediated alkylation of R.EcoRI-linearized pUC19. To be noted: for extent of DNA alkylation (protection from R.TaqI digestion) with increasing M.TaqI: 14.3 nM linearized pUC19, 20 to 200 nM M.TaqI, 65° C. 4 h; for extent of DNA alkylation (protection from R.TaqI digestion) with increasing M.TaqI / protection of DNA from R.TaqI in the absence of M.TaqI: 100 μM cofactor analog; for protection of DNA from R.TaqI in the absence of M.TaqI: no M.TaqI; for protection from R.TaqI with increasing cofactor analog concentration: 10 to 100 μM cofactor analog, 200 nM M.TaqI; for efficiency of M.TaqI dependent DNA alkylation relative to 3: linearized pUC19, disappearance of smaller restriction fragments.
T1 sequence (P14385 whole entry, the tested form may be a part): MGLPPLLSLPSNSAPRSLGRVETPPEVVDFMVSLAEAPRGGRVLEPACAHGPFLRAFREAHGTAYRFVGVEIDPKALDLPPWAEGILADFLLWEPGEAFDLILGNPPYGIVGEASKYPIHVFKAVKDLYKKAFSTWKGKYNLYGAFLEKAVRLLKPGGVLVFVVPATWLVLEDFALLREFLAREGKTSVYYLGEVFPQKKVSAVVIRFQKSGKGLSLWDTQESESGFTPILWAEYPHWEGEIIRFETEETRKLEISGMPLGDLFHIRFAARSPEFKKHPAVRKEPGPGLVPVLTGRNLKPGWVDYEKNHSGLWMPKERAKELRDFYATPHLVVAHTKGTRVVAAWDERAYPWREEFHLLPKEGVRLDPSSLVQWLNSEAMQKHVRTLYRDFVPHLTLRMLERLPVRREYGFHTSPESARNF

Assay [2] deals with T1, M.TaqI.
The target in a further assay is T2, M.HpaII (Haemophilus parainfluenzae, UniProt P15446).
T2 construct: purchased New England Biolabs
T2 sequence (P15446 1-358): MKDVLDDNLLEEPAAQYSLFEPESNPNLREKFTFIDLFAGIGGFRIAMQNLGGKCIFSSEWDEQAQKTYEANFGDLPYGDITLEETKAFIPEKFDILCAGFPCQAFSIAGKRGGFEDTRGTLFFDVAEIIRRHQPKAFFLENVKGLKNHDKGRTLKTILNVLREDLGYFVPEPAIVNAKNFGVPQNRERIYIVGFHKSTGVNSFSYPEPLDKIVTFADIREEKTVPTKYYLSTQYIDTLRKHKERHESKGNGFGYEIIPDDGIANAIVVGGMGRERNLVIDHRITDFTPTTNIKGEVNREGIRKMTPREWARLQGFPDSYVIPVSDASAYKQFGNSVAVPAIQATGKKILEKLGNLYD
In words: M.HpaII-catalyzed transfer of cofactor analogs to DNA.

Chain of M.EcoRI (P00472 whole entry): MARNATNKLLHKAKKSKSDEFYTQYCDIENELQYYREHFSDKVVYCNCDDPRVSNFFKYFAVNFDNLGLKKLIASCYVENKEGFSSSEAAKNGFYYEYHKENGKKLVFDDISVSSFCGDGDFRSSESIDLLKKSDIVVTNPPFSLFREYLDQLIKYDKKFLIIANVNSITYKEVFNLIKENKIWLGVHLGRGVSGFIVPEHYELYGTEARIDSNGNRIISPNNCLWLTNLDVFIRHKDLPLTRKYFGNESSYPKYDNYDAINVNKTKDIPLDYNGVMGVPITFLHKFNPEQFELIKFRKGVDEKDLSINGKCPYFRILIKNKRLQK
Chain of M.HhaI (P05102 whole entry): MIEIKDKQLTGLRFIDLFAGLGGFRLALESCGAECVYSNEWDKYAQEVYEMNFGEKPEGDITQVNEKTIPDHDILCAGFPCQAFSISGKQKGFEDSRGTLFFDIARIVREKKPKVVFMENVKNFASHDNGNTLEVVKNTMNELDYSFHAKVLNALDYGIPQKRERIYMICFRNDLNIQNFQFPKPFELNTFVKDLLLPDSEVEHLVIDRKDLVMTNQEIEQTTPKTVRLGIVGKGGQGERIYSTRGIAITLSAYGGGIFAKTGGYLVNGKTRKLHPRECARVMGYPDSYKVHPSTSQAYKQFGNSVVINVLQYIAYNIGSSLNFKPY
Chain of M.SssI (P15840 whole entry): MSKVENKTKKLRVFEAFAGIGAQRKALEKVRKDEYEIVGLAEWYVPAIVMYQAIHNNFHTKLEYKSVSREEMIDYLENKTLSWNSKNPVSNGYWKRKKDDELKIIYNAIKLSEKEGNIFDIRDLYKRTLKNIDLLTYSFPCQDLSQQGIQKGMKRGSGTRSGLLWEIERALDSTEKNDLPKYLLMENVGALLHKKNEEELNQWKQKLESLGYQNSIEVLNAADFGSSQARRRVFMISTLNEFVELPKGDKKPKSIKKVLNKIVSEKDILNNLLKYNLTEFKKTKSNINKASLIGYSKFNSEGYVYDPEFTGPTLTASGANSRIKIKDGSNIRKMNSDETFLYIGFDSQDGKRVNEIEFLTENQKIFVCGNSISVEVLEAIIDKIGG

On to `C#CCN(CCI)C[C@H]1O[C@@H](n2cnc3c(N)ncnc32)[C@@H](O)C1O` (stereo partly shown) [compound 56, 5′-[(iodoethyl)propargyl)amino]-2′,3′-5′-deoxyadenosine hydrochloride], for which, at M.TaqI [1] (brief treatments with M.TaqI, unpublished data), the “protection of linearized pUC19 DNA from R.TaqI digestion” value was “used very effectively to protect linearized pUC19 DNA from R.TaqI digestion”. Besides, on M.TaqI [2], the “DNA alkylation activity relative to 3” value is on record as “closely parallels that of 3” and the “alkylation of duplex pre-methylated with SAM” value is “failed to undergo reaction”. Besides, at M.EcoRI, the “DNA alkylation activity relative to 3” value is “closely parallels that of 3”, the “DNA alkylation at 200 nM cofactor analog” value is recorded as “not active at all” and the “alkylation of duplex pre-methylated with SAM” value is given as “failed to undergo reaction”. For the same compound, the “DNA-damaging activity in the presence of M.HhaI” value on M.HhaI is “completely devoid of DNA-damaging activity”.

`[N-]=[N+]=NCCCCNc1nc2c(N)ncnc2n1[C@@H]1O[C@H](CN2CC2)[C@H](O)C1O` (stereo partly shown) [24b, 8-(4″-Azido-butylamino)-5′-aziridino-5′-deoxy adenosine]: at M.TaqI [1], the “extent of DNA alkylation (protection from R.TaqI digestion) with increasing M.TaqI” value (shortened to “extent … with increasing M.TaqI”) was “increase in the amount of DNA alkylation”, the “protection of DNA from R.TaqI in the absence of M.TaqI” value (shortened to “protection of DNA from R.TaqI”) was “no protection of the DNA”, the “protection from R.TaqI with increasing cofactor analog concentration” value is reported as “increased protection from R.TaqI” and the “efficiency of M.TaqI dependent DNA alkylation relative to 3” value is recorded as “better cofactor analogs for M.TaqI than is the unsubstituted cofactor analog 3”. Further, the “covalent attachment to synthetic oligonucleotide (DNA mobility shift)” value (“covalent attachment … (DNA mobility shift)” for short) on M.TaqI [2] is given as “pronounced shift of the DNA mobility”. For the same compound, the “transfer of cofactor analog to radiolabeled synthetic oligo duplex” value on M.EcoRI is “closely parallels that observed with M.TaqI”. Moreover, the “M.HhaI-catalyzed transfer of cofactor analog” value on M.HhaI is “catalyzed the transfer”. Also, the “M.HpaII-catalyzed transfer of cofactor analog” value at M.HpaII is on record as “not able to catalyze the transfer”.

Turning to `[N-]=[N+]=Nc1nc2c(N)ncnc2n1[C@@H]1O[C@H](CN2CC2)C(O)[C@@H]1O` (stereo partly shown) [24a, 8-azido-5′-aziridino-5′-deoxyadenosine], on M.TaqI [1], the “extent … with increasing M.TaqI” value is “increase in the amount of DNA alkylation”, the “protection of DNA from R.TaqI” value is on record as “no protection of the DNA”, the “protection from R.TaqI with increasing cofactor analog concentration” value is recorded as “increased protection from R.TaqI” and the “efficiency of M.TaqI dependent DNA alkylation relative to 3” value is “better cofactor analogs for M.TaqI than is the unsubstituted cofactor analog 3”. At M.TaqI [2], the “covalent attachment … (DNA mobility shift)” value is “pronounced shift of the DNA mobility” and the “transfer to the 55-mer duplex 5” value is recorded as “effectively catalyze the transfer”. For the same compound, on M.EcoRI, the “transfer of cofactor analog to radiolabeled synthetic oligo duplex” value was “closely parallels that observed with M.TaqI”. Also, on M.HhaI, the “M.HhaI-catalyzed transfer of cofactor analog” value was “catalyzed the transfer” and the “transfer to the 55-mer duplex 5” value was “effectively catalyze the transfer”. For the same compound, at M.SssI, the “M.SssI transfer of cofactor analog to its recognition sequence” value is reported as “readily transfers” and the “efficiency of M.SssI mediated DNA alkylation, hemimethylated duplex 9 versus unmethylated duplex 8” value was “significantly more efficient for hemimethylated duplex 9”. Further, the “M.HpaII-catalyzed transfer of cofactor analog” value at M.HpaII is “not able to catalyze the transfer”.

Take `Nc1ncnc2c1ncn2[C@@H]1O[C@H](CN(CCI)CC[C@H](N)C(=O)O)C(O)[C@@H]1O` (stereo partly shown) [compound 67, 5′-(diaminobutyric acid)-N-iodoethyl-5′-deoxyadenosine ammonium hydrochloride]: at M.EcoRI, the “DNA alkylation at 200 nM cofactor analog” value is listed as “significant amount of slow mobility DNA” and the “lowest concentration at which cofactor analog is active” value is not above 40 nM. The “alkylation of duplex bearing 5-MeC for C substitution at the target base” value on M.HhaI is on record as “failed to undergo alkylation”. For the same compound, the “alkylation of duplex bearing 5-MeC for C substitution at the target base” value on M.SssI is reported as “failed to undergo alkylation”.

For “5′-aziridine adenylate [compound 3, reference compound]”, on M.TaqI [1], the “extent … with increasing M.TaqI” value is recorded as “increase in the amount of DNA alkylation”, the “protection of DNA from R.TaqI” value is recorded as “no protection of the DNA” and the “protection from R.TaqI with increasing cofactor analog concentration” value is given as “increased protection from R.TaqI”. Moreover, the “covalent attachment … (DNA mobility shift)” value on M.TaqI [2] is recorded as “pronounced shift of the DNA mobility”. Moreover, the “transfer of cofactor analog to radiolabeled synthetic oligo duplex” value at M.EcoRI is “clearly capable of transferring”. The “M.HpaII-catalyzed transfer of cofactor analog” value on M.HpaII is reported as “compatible”.
